Assay results: the supplement of paper PMC10307832

Assays:
Test in all cases: relative viability (nuclei count vs DMSO), 5 days (fraction); higher = more cells survive
[1] = compound: Cc1ccc2nc(NCCN)c3ncc(C)n3c2c1 + C[C@@H](Oc1cc(-c2cnn(C3CCNCC3)c2)cnc1N)c1c(Cl)ccc(F)c1Cl [Crizotinib] (partner 1 µM)
In short: (§1)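 Medians of duplicate plates are given as relative viability. That measure is the nuclei count in treated wells divided by the count in vehicle wells. Counts were taken on 4× images of lung cancer cell lines in 1536-well plates, 5 days after pin-tool dosing the day after seeding with one drug alone or a fixed anchor-drug dose plus five library-drug doses (not always all listed) in √10 steps.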

[2] = compound: Cc1ccc2nc(NCCN)c3ncc(C)n3c2c1 + Nc1ncn([C@H]2C[C@H](O)[C@@H](CO)O2)c(=O)n1 [Decitabine] (partner 2 µM)
In short: as §1

[3] = compound: Cc1ccc2nc(NCCN)c3ncc(C)n3c2c1 + COc1cccc2cc(-c3nc([C@H]4CC[C@H](C(=O)O)CC4)n4ncnc(N)c34)[nH]c12 [OSI-027] (partner 0.5 µM)
In short: as §1

Salubrinal + OSI-027 = compound: O=C(/C=C/c1ccccc1)NC(NC(=S)Nc1cccc2cccnc12)C(Cl)(Cl)Cl [Salubrinal] + COc1cccc2cc(-c3nc([C@H]4CC[C@H](C(=O)O)CC4)n4ncnc(N)c34)[nH]c12 [OSI-027] (partner 0.5 µM)
In short: as §1

Row | Cell Line | relative viability ([1]; first compound 0.04 µM) | relative viability ([1]; first compound 0.1265 µM) | relative viability ([1]; first compound 0.4 µM) | relative viability ([1]; first compound 1.265 µM) | relative viability ([1]; first compound 4 µM) | relative viability ([2]; first compound 0.04 µM) | relative viability ([2]; first compound 0.1265 µM) | relative viability ([2]; first compound 0.4 µM) | relative viability ([2]; first compound 1.265 µM) | relative viability ([2]; first compound 4 µM) | relative viability ([3]; first compound 0.04 µM) | relative viability ([3]; first compound 0.1265 µM) | relative viability ([3]; first compound 0.4 µM) | relative viability ([3]; first compound 1.265 µM) | relative viability ([3]; first compound 4 µM) | relative viability (Salubrinal + OSI-027; first compound 0.08 µM) | relative viability (Salubrinal + OSI-027; first compound 0.253 µM) | relative viability (Salubrinal + OSI-027; first compound 0.8 µM) | relative viability (Salubrinal + OSI-027; first compound 2.53 µM) | relative viability (Salubrinal + OSI-027; first compound 8 µM)
1 | NCI-H1975 | 1.05 | 0.965 | 0.957 | 0.771 | 0.757 | 0.384 | 0.394 | 0.405 | 0.455 | 0.403 | 0.709 | 0.692 | 0.711 | 0.716 | 0.523 | 0.959 | 0.567 | 0.891 | 0.703 | 0.405
2 | CAL-12T | 0.787 | 0.716 | 0.725 | 0.603 | 0.344 | – | – | – | – | – | 0.798 | 0.572 | 0.824 | 0.76 | 0.52 | 0.444 | 0.541 | 0.606 | 0.542 | 0.454
3 | NCI-H2342 | – | – | – | – | – | 0.688 | 0.73 | 0.799 | 0.737 | 0.72 | 0.659 | 0.607 | 0.767 | 0.551 | 0.595 | 0.653 | 0.523 | 0.608 | 0.639 | 0.561
4 | HCC-44 | 0.851 | 0.827 | 0.768 | 0.828 | 0.835 | 0.981 | 0.946 | 0.923 | 0.94 | 1 | 0.49 | 0.451 | 0.448 | 0.631 | 0.384 | 0.371 | 0.411 | 0.759 | 0.501 | 0.484
5 | EKVX | 0.921 | 0.794 | 1.02 | 1.05 | 0.903 | 0.335 | 0.35 | 0.345 | 0.32 | 0.28 | 0.754 | 0.688 | 0.658 | 0.71 | 0.617 | 0.701 | 0.641 | 0.657 | 0.454 | 0.673
6 | NCI-H1651 | 0.732 | 0.795 | 0.838 | 0.888 | 0.814 | 0.628 | 0.664 | 0.69 | 0.637 | 0.518 | 0.787 | 0.708 | 0.681 | 0.613 | 0.604 | 0.954 | 0.599 | 0.794 | 0.827 | 0.563
7 | NCI-H1648 | – | – | – | – | – | 0.521 | 0.5 | 0.568 | 0.528 | 0.431 | 0.242 | – | 0.249 | – | 0.233 | 0.23 | 0.268 | 0.257 | 0.269 | 0.266
8 | NCI-H1703 | 0.89 | 0.679 | 0.623 | 0.709 | 0.563 | – | – | – | – | – | – | – | – | – | – | – | – | – | – | –
9 | Calu-6 | 0.803 | 0.776 | 0.794 | 0.77 | 0.426 | – | – | – | – | – | – | – | – | – | – | – | – | – | – | –
10 | EBC-1 | 0.219 | 0.204 | 0.206 | 0.207 | 0.17 | – | – | – | – | – | – | – | – | – | – | – | – | – | – | –
11 | SW 1573 | 0.924 | 0.792 | 0.704 | 0.895 | 0.659 | 0.593 | 0.497 | 0.547 | 0.637 | 0.37 | 0.737 | 0.579 | 0.711 | 0.634 | 0.409 | 0.763 | 0.622 | 0.589 | 0.565 | 0.493
12 | NCI-H2228 | 0.51 | 0.436 | 0.53 | 0.346 | 0.405 | – | – | – | – | – | 0.589 | 0.656 | 0.617 | 0.59 | 0.719 | 0.5 | 0.468 | 0.596 | 0.558 | 0.547
13 | IA-LM | 1.05 | 0.945 | 0.631 | 0.787 | 0.631 | – | – | – | – | – | – | – | – | – | – | – | – | – | – | –
14 | NCI-H1623 | – | – | – | – | – | – | – | – | – | – | 0.418 | 0.444 | 0.451 | 0.39 | 0.425 | 0.482 | 0.387 | 0.544 | 0.386 | 0.44
15 | NCI-H522 | – | – | – | – | – | 0.573 | 0.795 | 0.765 | 0.62 | 0.675 | 0.622 | 0.802 | 0.649 | 0.657 | 0.613 | 0.74 | 0.661 | 0.734 | 0.791 | 0.571
16 | NCI-H1299 | 0.9 | 0.937 | 0.951 | 0.917 | 0.659 | – | – | – | – | – | – | – | – | – | – | – | – | – | – | –
17 | SW 900 | – | – | – | – | – | – | 0.43 | 0.448 | 0.354 | 0.458 | 0.453 | 0.661 | – | 0.465 | 0.553 | 0.545 | – | 0.737 | 0.576 | 0.481
18 | NCI-H1395 | – | – | – | – | – | 0.616 | 0.708 | 0.713 | 0.669 | 0.607 | 0.672 | 0.67 | 0.558 | 0.767 | 0.655 | 0.705 | 0.675 | 0.682 | 0.605 | 0.624
19 | A549 | 0.826 | 0.744 | 0.753 | 0.547 | 0.485 | 0.281 | 0.238 | 0.207 | 0.299 | 0.219 | – | – | – | – | – | – | – | – | – | –
20 | NCI-H1793 | – | – | – | – | – | 0.32 | 0.5 | 0.439 | 0.383 | 0.453 | 0.305 | 0.314 | 0.236 | 0.317 | 0.29 | 0.308 | 0.331 | 0.307 | 0.23 | 0.236
21 | NCI-H1563 | 0.865 | 0.835 | 0.906 | 0.918 | 0.88 | – | – | – | – | – | 0.78 | 0.769 | 0.768 | 0.796 | 0.728 | 0.784 | 0.751 | 0.74 | 0.741 | 0.695
